From ChEMBL document CHEMBL3751798, “Targeting cancer cells with oleanolic and ursolic acid derived hydroxamates” (Bioorg Med Chem Lett, 2016) come the findings set out here.

Molecules are shown by their SMILES.

The subject of one experiment is MCF7. The experiment is described as follows: Cytotoxicity against human MCF7 cells after 96 hrs by SRB assay. The format is functional, cell-based. Particulars: MCF7, 96 h. On the technique in general: The SRB assay estimates cell density from bound dye.
Experiment [1] can be described thus: Cytotoxicity against human 518A2 cells after 96 hrs by SRB assay. Particulars: 518A2, 96 h. In kind it is functional, cell-based.
A short description of experiment [2]: Cytotoxicity against mouse NIH/3T3 cells after 96 hrs by SRB assay. The note with it: NIH3T3, 96 h. The format is cell-based.
The next experiment deals with A2780. Description: Cytotoxicity against human A2780 cells after 96 hrs by SRB assay. The note with it: A2780, 96 h. In kind it is functional, cell-based.
A further experiment relates to FaDu. Description: Cytotoxicity against human FADU cells after 96 hrs by SRB assay. In kind it is functional, cell-based.
The subject of a further experiment is HT-29. The experiment is described as follows: Cytotoxicity against human HT-29 cells after 96 hrs by SRB assay. The format is functional, cell-based. The note with it: HT-29, 96 h.
For another experiment, the system named is A549. Description: Cytotoxicity against human A549 cells after 96 hrs by SRB assay. Particulars: A549, 96 h. The format is functional, cell-based.

One may read the EC50 as the concentration at which the effect is half-maximal. Read a high EC50 as lower potency in that assay.

For `CONC(=O)[C@]12CC[C@@H](C)[C@H](C)[C@H]1C1=CC[C@@H]3[C@@]4(C)CCC(=O)C(C)(C)[C@@H]4CC[C@@]3(C)[C@]1(C)CC2`, the EC50 in the experiment with MCF7 was 11.2 µM; in experiment [1], 12.9 µM; in experiment [2] it was 14.3 µM; with A2780 it was 14.3 µM; with FaDu, 12 µM; in the experiment with HT-29, 12.9 µM. Besides, in the experiment with A549, the EC50 came out at 9.2 µM.

For `CONC(=O)[C@]12CC[C@@H](C)[C@H](C)[C@H]1C1=CC[C@@H]3[C@@]4(C)CC[C@H](OC(C)=O)C(C)(C)[C@@H]4CC[C@@]3(C)[C@]1(C)CC2`, the EC50 with MCF7 is 6.8 µM; in experiment [1] it was 15.5 µM; in experiment [2] it was 14.8 µM; with A2780 it was 10.6 µM; in the experiment on FaDu it was 12.1 µM; in the experiment on HT-29, 13.2 µM. Further, the EC50 in the experiment on A549 is 6.6 µM.
